{"source": "PubChem BioAssay AID272", "about": "(DTP/NCI, 2004)", "system": "Lewis lung carcinoma i.m., BDF1 mice, T/C %", "test": "NCI In Vivo Anticancer Drug Screen. Data for tumor model Lewis Lung Carcinoma (intramuscular) in B6D2F1 (BDF1) mice", "procedure,_shortened": "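Compound given to mice with transplantable tumours; survival or tumour size compared against the vehicle control group, reported as T divided by C.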", "note": "Where “and” joins values, the source holds several entries; their conditions need not be identical. Identical values can stand only once. Results filed as inconclusive are left out.", "data": [{"molecule": "CC1CCC(NC(=O)N(CCCl)N=O)CC1", "note": "(centres undefined)", "values": [{"measurement": "T/C", "setting": "endpoint: mean tumor weight, dose: 3.12 mg/kg/injection, schedule: Q01DX011 (ip), vehicle: saline, higher = larger tumour", "value": "83 % of control"}, {"measurement": "T/C", "setting": "endpoint: mean tumor weight, dose: 3.12 mg/kg/injection, schedule: Q06HX008 (ip), vehicle: saline, higher = larger tumour", "value": "80 % of control"}, {"measurement": "T/C", "setting": "endpoint: mean tumor weight, dose: 6.25 mg/kg/injection, schedule: Q01DX011 (ip), vehicle: saline, higher = larger tumour", "value": "63 % of control"}, {"measurement": "T/C", "setting": "endpoint: mean tumor weight, dose: 6.25 mg/kg/injection, schedule: Q06HX004 (ip), vehicle: saline, higher = larger tumour", "value": "41 % of control"}, {"measurement": "T/C", "setting": "endpoint: mean tumor weight, dose: 6.25 mg/kg/injection, schedule: Q06HX008 (ip), vehicle: saline, higher = larger tumour", "value": "93 % of control"}, {"measurement": "T/C", "setting": "endpoint: mean tumor weight, dose: 8.4 mg/kg/injection, schedule: Q01DX001 (sc), vehicle: Klucel (hydroxypropylcellulose) (HPC), higher = larger tumour", "value": "111 % of control"}, {"measurement": "T/C", "setting": "endpoint: mean tumor weight, dose: 12.5 mg/kg/injection, schedule: Q01DX001 (ip), vehicle: saline, higher = larger tumour", "value": "76 % of control"}, {"measurement": "T/C", "setting": "endpoint: mean tumor weight, dose: 12.5 mg/kg/injection, schedule: Q06HX008 (ip), vehicle: saline, higher = larger tumour", "value": "11 % of control"}, {"measurement": "T/C", "setting": "endpoint: mean tumor weight, dose: 12.5 mg/kg/injection, schedule: Q08DX002 (ip), vehicle: saline, higher = larger tumour", "value": "99 % of control"}, {"measurement": "T/C", "setting": "endpoint: mean tumor weight, dose: 14.0 mg/kg/injection, schedule: Q01DX001 (sc), vehicle: Klucel (hydroxypropylcellulose) (HPC), higher = larger tumour", "value": "56 % of control"}, {"measurement": "T/C", "setting": "endpoint: mean tumor weight, dose: 23.0 mg/kg/injection, schedule: Q01DX001 (sc), vehicle: Klucel (hydroxypropylcellulose) (HPC), higher = larger tumour", "value": "35 % of control"}, {"measurement": "T/C", "setting": "endpoint: mean tumor weight, dose: 25.0 mg/kg/injection, schedule: Q01DX001 (ip), vehicle: saline, higher = larger tumour", "value": "38 % of control"}, {"measurement": "T/C", "setting": "endpoint: mean tumor weight, dose: 25.0 mg/kg/injection, schedule: Q08DX002 (ip), vehicle: saline, higher = larger tumour", "value": "30 % of control"}, {"measurement": "T/C", "setting": "endpoint: mean tumor weight, dose: 39.0 mg/kg/injection, schedule: Q01DX001 (sc), vehicle: Klucel (hydroxypropylcellulose) (HPC), higher = larger tumour", "value": "21 % of control"}, {"measurement": "T/C", "setting": "endpoint: mean tumor weight, dose: 50.0 mg/kg/injection, schedule: Q01DX001 (ip), vehicle: saline, higher = larger tumour", "value": "12 % of control"}, {"measurement": "T/C", "setting": "endpoint: mean tumor weight, dose: 50.0 mg/kg/injection, schedule: Q08DX002 (ip), vehicle: saline, higher = larger tumour", "value": "8 % of control"}, {"measurement": "T/C", "setting": "endpoint: median survival time, dose: 1.0 mg/kg/injection, schedule: Q01DX009 (ip), vehicle: saline + alcohol, higher = longer survival", "value": "112 % of control"}, {"measurement": "T/C", "setting": "endpoint: median survival time, dose: 2.5 mg/kg/injection, schedule: Q01DX015 (ip), vehicle: saline, higher = longer survival", "value": "111 % of control"}, {"measurement": "T/C", "setting": "endpoint: median survival time, dose: 3.12 mg/kg/injection, schedule: Q01DX017 (ip), vehicle: saline, higher = longer survival", "value": "100 % of control"}, {"measurement": "T/C", "setting": "endpoint: median survival time, dose: 3.12 mg/kg/injection, schedule: Q06HX012 (ip), vehicle: saline, higher = longer survival", "value": "97 % of control"}, {"measurement": "T/C", "setting": "endpoint: median survival time, dose: 4.0 mg/kg/injection, schedule: Q01DX009 (ip), vehicle: saline + alcohol, higher = longer survival", "value": "104 % of control and 118 % of control"}, {"measurement": "T/C", "setting": "endpoint: median survival time, dose: 4.0 mg/kg/injection, schedule: Q01DX011 (ip), vehicle: saline with Tween-80, higher = longer survival", "value": "100 % of control and 114 % of control"}, {"measurement": "T/C", "setting": "endpoint: median survival time, dose: 5.0 mg/kg/injection, schedule: Q01DX015 (ip), vehicle: saline, higher = longer survival", "value": "97 % of control and 107 % of control"}, {"measurement": "T/C", "setting": "endpoint: median survival time, dose: 6.25 mg/kg/injection, schedule: Q06HX004 (ip), vehicle: saline, higher = longer survival", "value": "106 % of control"}, {"measurement": "T/C", "setting": "endpoint: median survival time, dose: 6.3 mg/kg/injection, schedule: Q01DX015 (ip), vehicle: saline, higher = longer survival", "value": "95 % of control"}, {"measurement": "T/C", "setting": "endpoint: median survival time, dose: 7.5 mg/kg/injection, schedule: Q07DX003 (ip), vehicle: saline, higher = longer survival", "value": "90 % of control"}, {"measurement": "T/C", "setting": "endpoint: median survival time, dose: 7.9 mg/kg/injection, schedule: Q01DX015 (ip), vehicle: saline, higher = longer survival", "value": "90 % of control"}, {"measurement": "T/C", "setting": "endpoint: median survival time, dose: 8.0 mg/kg/injection, schedule: Q01DX009 (ip), vehicle: saline + alcohol, higher = longer survival", "value": "156 % of control"}, {"measurement": "T/C", "setting": "endpoint: median survival time, dose: 8.4 mg/kg/injection, schedule: Q01DX001 (sc), vehicle: Klucel (hydroxypropylcellulose) (HPC), higher = longer survival", "value": "114 % of control"}, {"measurement": "T/C", "setting": "endpoint: median survival time, dose: 10.0 mg/kg/injection, schedule: Q01DX001 (ip), vehicle: saline + alcohol, higher = longer survival", "value": "116 % of control"}, {"measurement": "T/C", "setting": "endpoint: median survival time, dose: 12.5 mg/kg/injection, schedule: Q01DX001 (ip), vehicle: saline, higher = longer survival", "value": "104 % of control"}, {"measurement": "T/C", "setting": "endpoint: median survival time, dose: 12.5 mg/kg/injection, schedule: Q06HX004 (ip), vehicle: saline, higher = longer survival", "value": "158 % of control"}, {"measurement": "T/C", "setting": "endpoint: median survival time, dose: 12.5 mg/kg/injection, schedule: Q06HX012 (ip), vehicle: saline, higher = longer survival", "value": "93 % of control"}, {"measurement": "T/C", "setting": "endpoint: median survival time, dose: 12.5 mg/kg/injection, schedule: Q08DX003 (ip), vehicle: saline, higher = longer survival", "value": "108 % of control"}, {"measurement": "T/C", "setting": "endpoint: median survival time, dose: 14.0 mg/kg/injection, schedule: Q01DX001 (sc), vehicle: Klucel (hydroxypropylcellulose) (HPC), higher = longer survival", "value": "158 % of control"}, {"measurement": "T/C", "setting": "endpoint: median survival time, dose: 14.0 mg/kg/injection, schedule: Q07DX003 (ip), vehicle: saline, higher = longer survival", "value": "104 % of control"}, {"measurement": "T/C", "setting": "endpoint: median survival time, dose: 15.0 mg/kg/injection, schedule: Q07DX003 (ip), vehicle: saline, higher = longer survival", "value": "90 % of control"}, {"measurement": "T/C", "setting": "endpoint: median survival time, dose: 20.0 mg/kg/injection, schedule: Q01DX001 (ip), vehicle: saline + alcohol, higher = longer survival", "value": "92 % of control"}, {"measurement": "T/C", "setting": "endpoint: median survival time, dose: 23.0 mg/kg/injection, schedule: Q01DX001 (sc), vehicle: Klucel (hydroxypropylcellulose) (HPC), higher = longer survival", "value": "177 % of control"}, {"measurement": "T/C", "setting": "endpoint: median survival time, dose: 23.0 mg/kg/injection, schedule: Q07DX003 (ip), vehicle: saline, higher = longer survival", "value": "112 % of control"}, {"measurement": "T/C", "setting": "endpoint: median survival time, dose: 24.0 mg/kg/injection, schedule: Q01DX001 (ip), vehicle: saline, higher = longer survival", "value": "102 % of control"}, {"measurement": "T/C", "setting": "endpoint: median survival time, dose: 24.0 mg/kg/injection, schedule: Q07DX003 (ip), vehicle: saline, higher = longer survival", "value": "175 % of control"}, {"measurement": "T/C", "setting": "endpoint: median survival time, dose: 25.0 mg/kg/injection, schedule: Q01DX001 (ip), vehicle: saline, higher = longer survival", "value": "122 % of control"}, {"measurement": "T/C", "setting": "endpoint: median survival time, dose: 25.0 mg/kg/injection, schedule: Q08DX003 (ip), vehicle: saline, higher = longer survival", "value": "91 % of control"}, {"measurement": "T/C", "setting": "endpoint: median survival time, dose: 30.0 mg/kg/injection, schedule: Q01DX001 (ip), vehicle: saline + alcohol, higher = longer survival", "value": "92 % of control"}, {"measurement": "T/C", "setting": "endpoint: median survival time, dose: 30.0 mg/kg/injection, schedule: Q01DX001 (ip), vehicle: saline, higher = longer survival", "value": "197 % of control"}, {"measurement": "T/C", "setting": "endpoint: median survival time, dose: 30.0 mg/kg/injection, schedule: Q07DX003 (ip), vehicle: saline, higher = longer survival", "value": "197 % of control and 204 % of control"}, {"measurement": "T/C", "setting": "endpoint: median survival time, dose: 30.0 mg/kg/injection, schedule: Q14DX002 (ip), vehicle: saline, higher = longer survival", "value": "187 % of control"}, {"measurement": "T/C", "setting": "endpoint: median survival time, dose: 39.0 mg/kg/injection, schedule: Q07DX003 (ip), vehicle: saline, higher = longer survival", "value": "151 % of control"}, {"measurement": "T/C", "setting": "endpoint: median survival time, dose: 45.0 mg/kg/injection, schedule: Q01DX001 (ip), vehicle: saline, higher = longer survival", "value": "151 % of control"}, {"measurement": "T/C", "setting": "endpoint: median survival time, dose: 45.0 mg/kg/injection, schedule: Q07DX003 (ip), vehicle: saline, higher = longer survival", "value": "117 % of control"}, {"measurement": "T/C", "setting": "endpoint: median survival time, dose: 45.0 mg/kg/injection, schedule: Q14DX002 (ip), vehicle: saline, higher = longer survival", "value": "117 % of control"}, {"measurement": "T/C", "setting": "endpoint: median survival time, dose: 50.0 mg/kg/injection, schedule: Q01DX001 (ip), vehicle: saline, higher = longer survival", "value": "181 % of control"}, {"measurement": "T/C", "setting": "endpoint: median survival time, dose: 56.0 mg/kg/injection, schedule: Q07DX003 (ip), vehicle: saline, higher = longer survival", "value": "100 % of control"}]}]}
